The values below come from US9481676B2, “Azepino[4,5-B]indoles and methods of use” (Medivation Technologies, Inc., priority 2008, dated 2016).

Test [1] deals with T1, human recombinant histamine H2 receptor (Homo sapiens, UniProt P25021).
T1 construct: expressed in transfected cells; host or cells: CHO-K1 cells
The experiment in a line: Histamine H2 radioligand binding ([125I]Aminopotentidine). The conditions noted are these: compound at 1 μM; read-out: Histamine Binding (1 μM) H2, percent inhibition of specific binding. How it is done:
To evaluate in radioligand binding assays the activity of compounds of the invention, human recombinant histamine H2 receptor expressed in Chinese hamster ovary (CHO) K1 cells (Ruat, M., Proc. Natl. Acad. Sci. USA. 87(5):1658, 1990) in a 50 mM Phosphate buffer, pH 7.4 was used. Compounds of the invention were incubated with 0.1 nM [^125I]Aminopotentidine for 120 min. at 25° C. Non-specific binding was estimated in the presence of 3 μM Tiotidine. Receptor proteins were filtered and washed, the filters were then counted to determine [^125I]Aminopotentidine specifically bound. Compounds were screened at 1 μM or lower, using 1% DMSO as vehicle. Biochemical assay results are presented as the percent inhibition of specific binding in Table 6.

Test [2] deals with T2, human recombinant serotonin (5-Hydroxytryptamine) 5-HT2A receptor (Homo sapiens, UniProt P28223).
T2 construct: expressed in transfected cells; host or cells: CHO-K1 cells
The experiment in a line: Serotonin 5-HT2A radioligand binding ([3H]Ketanserin). The conditions noted are these: compound at 1 μM; read-out: Serotonin (1 μM) 5-HT2A, percent inhibition of specific binding. How it is done: To evaluate in radioligand binding assays the activity of compounds of the invention, human recombinant serotonin (5-Hydroxytryptamine) 5-HT2A receptor expressed in Chinese hamster ovary (CHO-K1) cells (Bonhaus, D. W. et al. Br. J. Pharmacol. 115:622, 1995; Saucier, C. and Albert, P. R., J. Neurochem. 68:1998, 1997) in a 50 mM Tris-HCl buffer, pH 7.4, was used. Compounds of the invention were incubated with 0.5 nM [^3H]Ketanserin for 60 min. at 25° C. Non-specific binding was estimated in the presence of 1 μM Mianserin. Receptor proteins were filtered and washed, the filters were then counted to determine [^3H]Ketanserin specifically bound. Compounds were screened at 1 μM or lower, using 1% DMSO as vehicle. Biochemical assay results are presented as the percent inhibition of specific binding in Table 6.

Test [3] concerns the target T3, human recombinant serotonin (5-Hydroxytryptamine) 5-HT6 receptor (Homo sapiens, UniProt P50406).
T3 construct: expressed in transfected cells; host or cells: human HeLa cells
The experiment in a line: Serotonin 5-HT6 radioligand binding ([3H]LSD). The note with it: compound at 1 μM; read-out: Serotonin (1 μM) 5-HT6, percent inhibition of specific binding. How it is done:
To evaluate in radioligand binding assays the activity of compounds of the invention, human recombinant serotonin (5-Hydroxytryptamine) 5-HT6 receptor expressed in human HeLa cells (Monsma, F. J. Jr. et al., Mol. Pharmacol. 43:320, 1993) in a modified Tris-HCl buffer (50 mM Tris-HCl, pH 7.4, 150 mM NaCl, 2 mM Ascorbic Acid, 0.001% BSA) was used. Compounds of the invention were incubated with 1.5 nM [3H]Lysergic acid diethylamide (LSD) for 120 min. at 37° C. Non-specific binding was estimated in the presence of 5 μM Serotonin (5-HT). Receptor proteins were filtered and washed, the filters were then counted to determine [3H]LSD specifically bound. Compounds were screened at 1 μM or lower, using 1% DMSO as vehicle. Biochemical assay results are presented as the percent inhibition of specific binding in Table 6.

In test [4] the target is T4, human recombinant histamine H1 receptor (Homo sapiens, UniProt P35367).
T4 construct: expressed in transfected cells; host or cells: CHO cells
The experiment in a line: Histamine H1 radioligand binding ([3H]Pyrilamine). The conditions noted are these: compound at 1 μM; read-out: Histamine Binding (1 μM) H1, percent inhibition of specific binding. How it is done:
To evaluate in radioligand binding assays the activity of compounds of the invention, human recombinant histamine H1 receptor expressed in Chinese hamster ovary (CHO) cells (De Backer, M. D. et al., Biochem. Biophys. Res. Comm. 197(3):1601, 1993) in a modified Tris-HCl buffer (50 mM Tris-HCl, pH 7.4, 2 mM MgCl2, 100 mM NaCl, 250 mM Sucrose) was used. Compounds of the invention were incubated with 1.2 nM [^3H]Pyrilamine for 180 min. at 25° C. Non-specific binding was estimated in the presence of 1 μM pyrilamine. Receptor proteins were filtered and washed, the filters were then counted to determine [^3H]Pyrilamine specifically bound. Compounds were screened at 1 μM or lower, using 1% DMSO as vehicle. Biochemical assay results are presented as the percent inhibition of specific binding in Table 6.

Test [5] concerns the target T5, human recombinant dopamine D2L receptor (Homo sapiens, UniProt P14416).
T5 construct: expressed in transfected cells; host or cells: CHO cells
The experiment in a line: Dopamine D2L radioligand binding ([3H]Spiperone). The conditions noted are these: compound at 1 μM; read-out: Dopamine (1 μM) D2L, percent inhibition of specific binding. How it is done:
To evaluate in radioligand binding assays the activity of compounds of the invention, human recombinant dopamine D2L receptor expressed in Chinese hamster ovary (CHO) cells (Grandy, D. K. et al. Proc. Natl. Acad. Sci. USA. 86:9762, 1989; Hayes, G. et al., Mol. Endocrinol. 6:920, 1992) in a modified Tris-HCl buffer (50 mM Tris-HCl, pH 7.4, 1.4 mM Ascorbic Acid, 0.001% BSA, 150 mM NaCl) was used. Compounds of the invention were incubated with 0.16 nM [^3H]Spiperone for 120 min. at 25° C. Non-specific binding was estimated in the presence of 10 μM Haloperidol. Receptor proteins were filtered and washed, the filters were then counted to determine [^3H]Spiperone specifically bound. Compounds were screened at 1 μM or lower, using 1% DMSO as vehicle. Biochemical assay results are presented as the percent inhibition of specific binding in Table 5.

For test [6], the target named is T6, human recombinant serotonin (5-Hydroxytryptamine) 5-HT2C receptor (Homo sapiens, UniProt P28335).
T6 construct: expressed in transfected cells; host or cells: CHO-K1 cells
T6 sequence (P28335 33-458): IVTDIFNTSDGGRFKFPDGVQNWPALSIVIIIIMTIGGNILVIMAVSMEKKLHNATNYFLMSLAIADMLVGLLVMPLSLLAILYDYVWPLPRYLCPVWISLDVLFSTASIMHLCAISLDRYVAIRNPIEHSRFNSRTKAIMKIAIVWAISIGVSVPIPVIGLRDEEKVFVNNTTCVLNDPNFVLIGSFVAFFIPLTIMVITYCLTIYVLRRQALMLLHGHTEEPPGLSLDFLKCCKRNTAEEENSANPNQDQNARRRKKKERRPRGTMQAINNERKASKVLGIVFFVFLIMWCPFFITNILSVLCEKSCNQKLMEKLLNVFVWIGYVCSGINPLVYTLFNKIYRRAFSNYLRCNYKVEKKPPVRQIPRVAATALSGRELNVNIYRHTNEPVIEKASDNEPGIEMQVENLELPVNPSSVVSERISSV
The experiment in a line: Serotonin 5-HT2C radioligand binding ([3H]Mesulergine). The conditions noted are these: compound at 1 μM; read-out: Serotonin (1 μM) 5-HT2C, percent inhibition of specific binding. How it is done:
To evaluate in radioligand binding assays the activity of compounds of the invention, human recombinant serotonin (5-Hydroxytryptamine) 5-HT2C receptor expressed in Chinese hamster ovary (CHO-K1) cells (Wolf, W. A. and Schutz, J. S., J. Neurochem. 69:1449, 1997) in a modified Tris-HCl buffer (50 mM Tris-HCl, pH 7.4, 0.1% Ascorbic Acid, 10 μM Pargyline) was used. Compounds of the invention were incubated with 1 nM [^3H]Mesulergine for 60 min. at 25° C. Non-specific binding was estimated in the presence of 1 μM Mianserin. Receptor proteins were filtered and washed, the filters were then counted to determine [^3H]Mesulergine specifically bound. Compounds were screened at 1 μM or lower, using 1% DMSO as vehicle. Biochemical assay results are presented as the percent inhibition of specific binding in Table 6.

T2 sequence (P28223 whole entry): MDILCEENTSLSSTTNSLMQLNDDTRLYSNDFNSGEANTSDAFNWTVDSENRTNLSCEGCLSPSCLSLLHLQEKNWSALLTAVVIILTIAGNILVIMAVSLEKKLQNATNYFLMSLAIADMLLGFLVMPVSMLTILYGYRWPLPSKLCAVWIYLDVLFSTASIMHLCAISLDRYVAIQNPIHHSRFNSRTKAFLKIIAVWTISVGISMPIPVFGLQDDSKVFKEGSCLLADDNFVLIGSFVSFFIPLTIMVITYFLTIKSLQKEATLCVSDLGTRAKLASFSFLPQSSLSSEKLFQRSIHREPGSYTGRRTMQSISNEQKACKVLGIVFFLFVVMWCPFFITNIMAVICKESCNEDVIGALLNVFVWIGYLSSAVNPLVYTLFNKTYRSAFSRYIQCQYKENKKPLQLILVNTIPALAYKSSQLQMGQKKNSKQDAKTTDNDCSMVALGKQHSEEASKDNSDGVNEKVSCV
T1 sequence (P25021 whole entry): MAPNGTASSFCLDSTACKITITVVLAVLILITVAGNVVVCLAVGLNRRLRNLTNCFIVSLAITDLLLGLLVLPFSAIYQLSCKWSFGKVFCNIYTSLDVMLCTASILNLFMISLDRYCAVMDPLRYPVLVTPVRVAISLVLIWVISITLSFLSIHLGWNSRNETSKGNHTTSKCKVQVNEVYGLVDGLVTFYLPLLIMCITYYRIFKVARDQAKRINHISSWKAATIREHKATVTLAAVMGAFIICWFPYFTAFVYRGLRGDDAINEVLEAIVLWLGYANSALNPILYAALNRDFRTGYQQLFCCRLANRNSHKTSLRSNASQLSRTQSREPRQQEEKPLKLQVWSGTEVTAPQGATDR
T5 sequence (P14416 whole entry): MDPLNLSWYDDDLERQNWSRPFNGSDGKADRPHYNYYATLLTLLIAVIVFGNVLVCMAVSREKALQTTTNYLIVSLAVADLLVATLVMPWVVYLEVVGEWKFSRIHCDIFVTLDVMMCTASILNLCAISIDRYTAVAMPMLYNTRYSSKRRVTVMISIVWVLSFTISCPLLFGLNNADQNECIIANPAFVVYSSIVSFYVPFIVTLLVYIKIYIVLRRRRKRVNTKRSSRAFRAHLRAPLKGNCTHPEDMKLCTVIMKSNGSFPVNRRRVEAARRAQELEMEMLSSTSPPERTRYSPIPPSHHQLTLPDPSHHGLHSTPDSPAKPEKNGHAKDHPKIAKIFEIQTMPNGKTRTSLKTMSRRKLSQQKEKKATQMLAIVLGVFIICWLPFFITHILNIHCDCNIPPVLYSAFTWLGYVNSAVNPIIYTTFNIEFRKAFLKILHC
T4 sequence (P35367 whole entry): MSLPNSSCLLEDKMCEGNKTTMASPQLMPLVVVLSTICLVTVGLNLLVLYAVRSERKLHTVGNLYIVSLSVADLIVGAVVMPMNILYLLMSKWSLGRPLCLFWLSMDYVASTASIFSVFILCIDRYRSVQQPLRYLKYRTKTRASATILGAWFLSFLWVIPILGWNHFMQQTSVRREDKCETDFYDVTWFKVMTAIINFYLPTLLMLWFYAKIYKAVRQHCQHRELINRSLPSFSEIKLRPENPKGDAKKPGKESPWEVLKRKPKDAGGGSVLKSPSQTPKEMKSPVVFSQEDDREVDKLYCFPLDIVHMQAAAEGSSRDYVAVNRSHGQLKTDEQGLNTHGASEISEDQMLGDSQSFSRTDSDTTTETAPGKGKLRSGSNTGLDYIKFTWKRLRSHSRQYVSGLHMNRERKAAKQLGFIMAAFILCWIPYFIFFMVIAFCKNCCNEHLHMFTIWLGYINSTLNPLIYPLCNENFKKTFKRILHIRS
T3 sequence (P50406 whole entry): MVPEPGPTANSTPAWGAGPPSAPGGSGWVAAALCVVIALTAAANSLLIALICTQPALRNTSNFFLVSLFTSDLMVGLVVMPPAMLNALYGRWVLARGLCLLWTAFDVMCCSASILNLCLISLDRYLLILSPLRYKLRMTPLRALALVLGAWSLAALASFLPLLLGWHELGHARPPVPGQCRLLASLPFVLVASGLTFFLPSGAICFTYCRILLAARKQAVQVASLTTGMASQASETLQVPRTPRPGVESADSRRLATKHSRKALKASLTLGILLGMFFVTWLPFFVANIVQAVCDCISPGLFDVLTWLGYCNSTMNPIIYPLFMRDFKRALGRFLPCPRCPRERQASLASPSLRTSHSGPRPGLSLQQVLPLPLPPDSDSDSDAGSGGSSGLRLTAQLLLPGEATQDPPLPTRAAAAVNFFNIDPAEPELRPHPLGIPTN

As to `C/C(=C\n1c2c(c3cc(C)ccc31)CCN(C)CC2)c1cccc(F)c1` [Compound No. 252, (E)-6-(2-(3-fluorophenyl)prop-1-enyl)-3,9-dimethyl-1,2,3,4,5,6-hexahydroazepino[4,5-b]indole], the inhibition at 1 µM in test [1] was 87%; in test [2], 96%; in test [3], 98%; in test [4] it was 93%; in test [5], 19%; in test [6] it was 87%.

For `COc1ccc(/C(C)=C/n2c3c(c4cc(C)ccc42)CCN(C)CC3)cc1` [Compound No. 182, (E)-1,2,3,4,5,6-hexahydro-6-(2-(4-methoxyphenyl)prop-1-enyl)-3,9-dimethylazepino[4,5-b]indole], the inhibition at 1 µM came to 92% in test [1]; 101% in test [2]; 96% in test [3]; 62% in test [4]; 19% in test [5]; 102% in test [6].

In the case of `C/C(=C\n1c2c(c3cc(Cl)ccc31)CCN(C)CC2)c1ccc(Cl)c(Cl)c1` [Compound No. 154, (E)-9-chloro-6-(2-(3,4-dichlorophenyl)prop-1-enyl)-1,2,3,4,5,6-hexahydro-3-methylazepino[4,5-b]indole], the inhibition at 1 µM in test [1] came out at 97%; in test [2], 100%; in test [3], 92%; in test [4], 94%; in test [5], 33%; in test [6], 99%.

`COc1ccc(/C(C)=C/n2c3c(c4cc(C)ccc42)CCN(C)CC3)cc1F` [Compound No. 179, (E)-6-(2-(3-fluoro-4-methoxyphenyl)prop-1-enyl)-1,2,3,4,5,6-hexahydro-3,9-dimethylazepino[4,5-b]indole]: the inhibition at 1 µM in test [1] was determined as 88%; in test [2], 98%; in test [3], 77%; in test [4], 45%; in test [5], 23%; in test [6], 100%.

Take `C/C(=C/n1c2c(c3cc(C)ccc31)CCN(C)CC2)c1ccccc1F` [Compound No. 240, (Z)-6-(2-(2-fluorophenyl)prop-1-enyl)-3,9-dimethyl-1,2,3,4,5,6-hexahydroazepino[4,5-b]indole]: the inhibition at 1 µM in test [1] was found to be 87%; in test [2], 98%; in test [3], 102%; in test [4], 96%; in test [5] it was 57%; in test [6], 97%.

For the molecule `COc1ccc(C#Cn2c3c(c4cc(C)ccc42)CCN(C)CC3)cc1F` [Compound No. 284, 6-((3-fluoro-4-methoxyphenyl)ethynyl)-3,9-dimethyl-1,2,3,4,5,6-hexahydroazepino[4,5-b]indole], the inhibition at 1 µM in test [1] was found to be 4%; in test [2] it was 94%; in test [3], 42%; in test [4], 11%; in test [5] it was 11%; in test [6], 100%.

For the molecule `C/C(=C/n1c2c(c3cc(Cl)ccc31)CCN(C)CC2)c1ccccc1F` [Compound No. 242, (Z)-9-chloro-6-(2-(2-fluorophenyl)prop-1-enyl)-3-methyl-1,2,3,4,5,6-hexahydroazepino[4,5-b]indole], the inhibition at 1 µM in test [1] turned out to be 98%; in test [2], 99%; in test [3], 102%; in test [4], 100%; in test [5], 69%; in test [6], 94%.

For the molecule `C/C(=C/n1c2c(c3cc(Cl)ccc31)CCN(C)CC2)c1ccccc1Cl` [Compound No. 244, (Z)-9-chloro-6-(2-(2-chlorophenyl)prop-1-enyl)-3-methyl-1,2,3,4,5,6-hexahydroazepino[4,5-b]indole], the inhibition at 1 µM in test [1] is 99%; in test [2] it was 100%; in test [3] it was 103%; in test [4], 102%; in test [5], 43%; in test [6], 101%.

For the molecule `C/C(=C/n1c2c(c3cc(Cl)ccc31)CCN(C)CC2)c1cccc(F)c1` [Compound No. 249, (Z)-9-chloro-6-(2-(3-fluorophenyl)prop-1-enyl)-3-methyl-1,2,3,4,5,6-hexahydroazepino[4,5-b]indole], the inhibition at 1 µM in test [1] is 97%; in test [2], 100%; in test [3], 101%; in test [4] it was 98%; in test [5], 35%; in test [6], 98%.

Consider `C/C(=C\n1c2c(c3cc(Cl)ccc31)CCN(C)CC2)c1cccnc1` [Compound No. 246, (E)-9-chloro-3-methyl-6-(2-(pyridin-3-yl)prop-1-enyl)-1,2,3,4,5,6-hexahydroazepino[4,5-b]indole], for which the inhibition at 1 µM in test [1] worked out at 48%; in test [2], 98%; in test [3], 94%; in test [4], 96%; in test [5] it was 14%; in test [6], 99%.

One may read the inhibition as the change of the read-out against control, counted positive when it falls.
